US20220387403A1, “COMPOUNDS, COMPOSITIONS AND METHODS FOR TREATING NASH, NAFLD, AND OBESITY” (CVI Pharmaceuticals Limited, priority 2019, published 2022)
Entries after “also recorded” stand apart in the source; their conditions may differ.

Key:
LDLR mRNA [1] = assay: LDLR mRNA expression in HepG2 cells, semi-quantitative RT-PCR; type: cell-based, human; settings: 8 hours, FIG. 3
Protocol: HepG2 cells obtained from American Tissue Culture Collection (Manassas, Va., USA) were seeded in 6-well culture plates at a density of 0.8×10^6 cells/well cultured in EMEM containing 0.5% FBS and were treated with each purified compound at indicated doses for 8 hours. Total RNA was isolated, and 2 μg per sample was reverse transcribed with random primers using M-MLV (Promega) at 37° C. for 1 hour. PCR was carried out at 94° C. for 30 sec, 60° C. for 30 sec, and 72° C. for 30 sec with initial activation of the enzyme at 94° C. for 1 minute. Thirty cycles were performed for LDLR and GAPDH. PCR was performed using primers HLDLR-up and HLDLR-lo for LDLR and primers HGAPDH-up and HGAPDH-lo for GAPDH. The PCR products were separated on a 1% agarose gel and the band intensity was quantitated. LDLR mRNA levels were corrected by measuring GAPDH mRNA levels.
Specific stereochemical requirements of +/−THP in the upregulation of LDLR mRNA expression were determined by a similar experiment. HepG2 cells were treated with the pure 14R-(+)-THP or the pure 14S-(−)-THP at the indicated concentrations for 24 hours. The levels of LDLR mRNA and GAPDH mRNA in untreated and the compound-treated HepG2 cells were assessed by semi-quantitative RT-PCR.

NASH hamster model = assay: Free-choice diet-induced NASH hamster model; type: in vivo; settings: for NAS score / fibrosis / hepatocyte ballooning: C128 100 mg/kg, elafibranor 15 mg/kg, orally QD for 5 weeks
Protocol: In a free-choice diet-induced NASH hamster model, hamsters were fed a free choice diet (free choice between a chow diet with normal tap water or a high fat/cholesterol diet (Safe Diets) with 10% fructose enriched tap water) for up to 20 weeks (15 weeks diet and 5 weeks treatment). After 15 weeks of diet, hamsters were randomized into 3 homogenous groups (n=10/group) and were treated with vehicle, compound 128 (C128) at 100 mg/kg, or PPAR dual agonist elafibranor 15 mg/kg orally QD for 5 weeks. […] The study results are illustrated by FIGS. 17 to 19.

NAFLD hamster model = assay: High fat and high cholesterol diet induced NAFLD hamster model; type: in vivo; settings: 4 weeks
Protocol: In a high fat and high cholesterol diet (HFHCD) induced non-alcoholic fat liver disease (NAFLD) hamster model, hamsters were fed a HFHCD for two weeks then treated for 4 weeks with C128 at 10 mg/kg, 20 mg/kg and 40 mg/kg, along with fenofibrate at 50 mg/kg as a positive control. Serum lipids and liver enzymes were measured using standard techniques. Liver tissue histopathology with Oil-red O staining and H&E staining were also performed.
In a high fat and high cholesterol diet (HFHCD) induced NAFLD hamster model, hamsters were fed a HFHCD for two weeks then treated for 4 weeks with C127 at 80 mg/kg or with fenofibrate 50 mg/kg.

PCSK9 mRNA = PCSK9 mRNA expression in HepG2 cells, quantitative real-time RT-PCR; type: cell-based, human; settings: 24 hours; for Activity on PCSK9 mRNA reduction at 10 uM (fold of control) / Activity on PCSK9 mRNA reduction at 40 uM (fold of control): mean ± s.d.
Protocol: The time-dependent effects of compounds of Formula I, II, III, and IV on the upregulation of LDLR mRNA and the inhibition of PCSK9 mRNA expression were examined (Horton J D, Cohen J C, Hobbs H H. “Molecular biology of PCSK9: its role in LDL metabolism” TRENDS in Biochemical Sciences 2007; 32:71-77). HepG2 cells were treated with new compounds individually at 20 uM dose for 1 day, 2 day, and 3 days. Total RNA was isolated and 2 μg was used to generate cDNA in a reaction containing random primers and M-MLV at 37° C. for 1 hour in a volume of 25 μl. Real-time PCR was performed on the cDNA using MCEP REALPLEX 2 SYSTEM (Eppendorf) and Universal MasterMix (Applied Biosystems). Human LDLR, PCSK9, and GAPDH Pre-Developed TaqMan Assay Reagents (Applied Biosystems) were used to assess the levels of mRNA expressions in HepG2. The levels of LDLR mRNA or PCSK9 mRNA were normalized to that of GAPDH. Each RNA samples was assayed in triplicate. The abundance of LDLR mRNA or PCSK9 mRNA in untreated cells was defined as 1, and the amounts of LDLR mRNA or PCSK9 from compound-treated cells were plotted relative to that value (FIG. 10). The data shown are mean±s.d.
Total RNA was harvested for quantitative real-time RT-PCR analysis using method described in Examples 16B. The fold activity was derived by dividing the amount of normalized LDLR or PCSK9 mRNA in compound-treated cells over the amount of LDLR or PCSK9 mRNA in untreated control cells.
(§1) The effects of 23 compounds on the mRNA expressions of LDLR and PCSK9 were examined using quantitative real-time RT-PCR assays. HepG2 cells were treated with various compounds at 10 and 40 uM concentrations for 24 hours. Total RNA was isolated and 2 μg was used to generate cDNA in a reaction containing random primers and M-MLV at 37° C. for 1 h in a volume of 25 μl. Real-time PCR was performed on the cDNA using MCEP REALPLEX 2 SYSTEM (Eppendorf) and Universal MasterMix (Applied Biosystems). Human LDLR, PCSK9, and GAPDH Pre-Developed TaqMan Assay Reagents (Applied Biosystems) were used to assess the levels of mRNA expressions in HepG2. The levels of LDLR and PCSK9 mRNA were normalized to that of GAPDH. Each RNA samples was assayed in duplicate. The fold activity was calculated by dividing mRNA abundance in compound treated cells with that of control.

LDLR mRNA [2] = assay: LDLR mRNA expression in HepG2 cells, quantitative real-time RT-PCR; type: cell-based, human; settings: 24 hours; for Activity on LDLR mRNA at 10 uM (fold of control) / Activity on LDLR mRNA at 40 uM (fold of control): mean ± s.d.
Protocol: Activities of some compounds of Formulas I, II, III, and IV on LDLR mRNA expression were determined. HepG2 cells were treated with new compounds individually at a dose less than or equal to 10 μM for 24 hours. Total RNA was harvested for quantitative real-time RT-PCR analysis using the method described in Example 16B. […] In these experiments, berberine chloride was included for comparison. […]
Total RNA was harvested for quantitative real-time RT-PCR analysis using method described in Examples 16B.
as §1

obese Cynomolgus monkeys = assay: Obese Cynomolgus monkeys fed a high fat diet (DEXA scan, serum parameters); type: in vivo; settings: 40 mg/kg/day PO three weeks, then 80 mg/kg/day weeks 4-6
Excerpt: Twelve obese Cynomolgus monkeys were fed a high fat diet containing 0.5% cholesterol for 6 weeks before the treatment phase. Before the treatment with compound 127 (C127) or vehicle, all animals received a assessment of whole body and fat composition using Dual Energy X-Ray Absorptiometry (DEXA) whole body scan to measure body fat content and bone mineral density/content (reference: Black, A., Tilmont, E. M., Baer, D. J., Rumpler W. V., et. Al. Accuracy and precision of dual-energy X-ray absorptiometry for body composition measurements in rhesus monkeys. Journal of Medical Primatology, 30:94-99, 2001. Six monkeys received vehicle by PO and six monkeys received C127 at 40 mg/kg/day by PO for three weeks; from week 4-6, C127 dose was increased to 80 mg/kg/day. Dosing was ended after 6-weeks treatment, followed by DEXA scan on all animals.

[3] = 100 mg/kg orally QD for 5 weeks

COc1cc2c(cc1O)CCN1Cc3c(ccc(OC)c3OC)CC21 (stereo not drawn) [14R-(+)-CRPM, 14R-(+)-corypalmine]
effects on LDLR mRNA expression (in words) (LDLR mRNA [1]): potent and dose-dependent effects

CSc1ccc(C(=O)/C=C/c2cc(C)c(OC(C)(C)C(=O)O)c(C)c2)cc1 [elafibranor, reference compound]
NAS score (NASH hamster model): significant reduction
fibrosis (NASH hamster model): reduced fibrosis, although to a lesser degree
hepatocyte ballooning (NASH hamster model): reduced

COc1cc2c(cc1OC)C1Cc3ccc(OC)c(OS(=O)(=O)c4cccc(F)c4)c3CN1CC2 (stereo not drawn) [Compound 127, 2,3,10-trimethoxy-5,6,7,8,13,13a-hexahydroisoquinolino[2,1-b]isoquinolin-9-yl 3-fluorobenzenesulfonate]
hepatocyte lipid droplet vacuoles, cell and neutrophil infiltration (H&E) (NAFLD hamster model; C127 80 mg/kg): reduced
hypolipidemic effect (NAFLD hamster model; C127 80 mg/kg): significant hypolipidemic effect
lipid deposition in the liver (NAFLD hamster model; C127 80 mg/kg): effectively reduced
Activity on PCSK9 mRNA reduction at 10 uM (fold of control) (PCSK9 mRNA): 0.197 ± 0.014 fold of control
Activity on PCSK9 mRNA reduction at 40 uM (fold of control) (PCSK9 mRNA): 0.192 ± 0.016 fold of control
Activity on LDLR mRNA at 10 uM (fold of control) (LDLR mRNA [2]): 1.80 ± 0.13 fold of control
Activity on LDLR mRNA at 40 uM (fold of control) (LDLR mRNA [2]): 2.38 ± 0.38 fold of control
body weight, BMI and body fat (DEXA) (obese Cynomolgus monkeys): reduced
bone mineral content (DEXA) (obese Cynomolgus monkeys): improved
liver enzyme ALT (obese Cynomolgus monkeys): significant reduction
serum LDL-C, TC (obese Cynomolgus monkeys): trend in reducing

COc1cc2c(cc1OC)[C@H]1[C@@H](C)c3ccc(OC)c(OC)c3CN1CC2 [14R,13S-(+)-CRDL, 14R,13S-(+)-corydaline]
effects on LDLR mRNA expression (in words) (LDLR mRNA [1]): potent and dose-dependent effects

COc1ccc2c(c1)CCN1Cc3c(ccc(OC)c3OS(=O)(=O)c3cccc(F)c3)CC21 (stereo not drawn) [Compound 128, 3,10-dimethoxy-5,6,7,8,13,13a-hexahydroisoquinolino[2,1-b]isoquinolin-9-yl 3-fluorobenzenesulfonate]
inflammation score (NASH hamster model; [3]): trend towards lower
steatosis score (NASH hamster model; [3]): trend towards lower
NAS score (NASH hamster model): significant reduction
fibrosis (NASH hamster model): significantly lowered; also recorded: not detected
hepatocyte ballooning (NASH hamster model): significantly lowered
lipid droplets in the hepatocytes and cellular inflammation (H&E) (NAFLD hamster model; 20 mg/kg and 40 mg/kg groups): alleviated to varying degrees
hepatocyte lipid droplet, hepatocyte ballooning and cellular inflammation (H&E) (NAFLD hamster model; 40 mg/kg group): significantly reduced
circulating cholesterol and triglycerides (serum TC, LDL-C, TG) (NAFLD hamster model; C128 10, 20 and 40 mg/kg): significantly reduced
diet induced elevations of liver enzymes (ALT, AST, ALP) (NAFLD hamster model; C128 10, 20 and 40 mg/kg): significantly reduced
fat accumulation in liver tissues (NAFLD hamster model; C128 10, 20 and 40 mg/kg): significantly reduced
Activity on PCSK9 mRNA reduction at 40 uM (fold of control) (PCSK9 mRNA): 0.86 ± 0.029 fold of control
Activity on LDLR mRNA at 10 uM (fold of control) (LDLR mRNA [2]): 7.52 ± 0.26 fold of control
Activity on LDLR mRNA at 40 uM (fold of control) (LDLR mRNA [2]): 13.36 ± 0.46 fold of control

COc1ccc2c(c1OS(=O)(=O)c1cccc(F)c1)CN1CCc3cc(C)ccc3C1C2 (stereo not drawn) [Compound 130, 10-Methoxy-3-methyl-5,6,7,8,13,13a-hexahydroisoquinolino[2,1-b]isoquinolin-9-yl 3-fluroobenzenesulfonate]
Activity on PCSK9 mRNA reduction at 10 uM (fold of control) (PCSK9 mRNA): 2.11 ± 0.11 fold of control
Activity on LDLR mRNA at 10 uM (fold of control) (LDLR mRNA [2]): 4.29 ± 0.65 fold of control
Activity on LDLR mRNA at 40 uM (fold of control) (LDLR mRNA [2]): 9.00 ± 1.49 fold of control

COc1cc2c(cc1OCCO)C1Cc3ccc(OC)c(OS(=O)(=O)c4ccccc4)c3CN1CC2 (stereo not drawn) [Compound 143, 2-(2-hydroxyethoxy)-3,10-dimethoxy-5,6,7,8,13,13a-hexahydroisoquinolino[2,1-b]isoquinolin-9-yl benzenesulfonate]
Activity on PCSK9 mRNA reduction at 10 uM (fold of control) (PCSK9 mRNA): 1.09 ± 0.09 fold of control
Activity on LDLR mRNA at 10 uM (fold of control) (LDLR mRNA [2]): 1.87 ± 0.03 fold of control
Activity on LDLR mRNA at 40 uM (fold of control) (LDLR mRNA [2]): 14.97 ± 1.68 fold of control

COc1cc2c(cc1OC)[C@H]1Cc3ccc(OC)c(OC)c3CN1CC2 [14R-(+)-THP, 14R-(+)-tetrahydropalmatine]
effects on LDLR mRNA expression (in words) (LDLR mRNA [1]): potent and dose-dependent effects

COc1ccc2c(c1OS(=O)(=O)c1cccc(F)c1)CN1CCc3cc4c(cc3C1C2)OCCO4 (stereo not drawn) [Compound 129, 11-Methoxy-6,7,8,9,14,14a-hexahydro-2H,3H-1,4-dioxano[5,6-g]isoquinolino[3,2-a]isoquinolin-10-yl 3-fluorobenzenesulfonate]
Activity on PCSK9 mRNA reduction at 10 uM (fold of control) (PCSK9 mRNA): 1.57 ± 0.07 fold of control
Activity on PCSK9 mRNA reduction at 40 uM (fold of control) (PCSK9 mRNA): 1.68 ± 0.41 fold of control
Activity on LDLR mRNA at 10 uM (fold of control) (LDLR mRNA [2]): 2.49 ± 0.18 fold of control
Activity on LDLR mRNA at 40 uM (fold of control) (LDLR mRNA [2]): 1.99 ± 0.13 fold of control

COc1cc2c(cc1OC)C1Cc3ccc(OC)c(OS(=O)(=O)c4ccccc4)c3CN1CC2 (stereo not drawn) [Compound 91, 2,3,10-trimethoxy-5,6,7,8,13,13a-hexahydroisoquinolino[2,1-b]isoquinolin-9-yl benzenesulfonate]
PCSK9 mRNA expression vs concentration (in words) (PCSK9 mRNA; FIG. 15B): inhibits
LDLR mRNA expression vs concentration (in words) (LDLR mRNA [2]; FIG. 15A): dose-dependently increases
